Among the data in the supplement of paper PMC12463676, “Small-molecule dissolution of stress granules by redox modulation benefits ALS models” (Nature Chemical Biology, 2025) are thermal stability z-score values, retold here.

Compound in test [1]: O=[As]([O-])(O)O.[K+] [potassium arsenate]
In words: thermal stability z-score vs DMSO; higher = more thermally stabilized by treatment. To be noted: HeLa; arsenate concentration 1 mM. As to the method:
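Cellular thermal proteome profiling in HeLa cells treated with 1 mM arsenate for 1 h (DMSO pretreatment), heated to ten temperatures (37-66.3 °C). Soluble protein was quantified by TMT mass spectrometry relative to DMSO controls; the thermal stability score was transformed to a z-score; mean of n = 3 experiments.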

Compound in test [2]: NC(=O)CCCCC1CCSS1 [lipoamide]
Described as above. The conditions noted are these: HeLa, lipoamide concentration 100 µM. As to the method: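 Cellular thermal proteome profiling in HeLa cells. Cells were treated with 100 µM lipoamide for 1 h, with or without 1 mM arsenate for a further 1 h, then heated to ten temperatures (37-66.3 °C), and soluble protein was quantified by TMT mass spectrometry relative to 0.1% DMSO controls. The thermal stability score (sum of log2 fold changes minus the abundance score) was transformed to a z-score; mean of n = 3 experiments.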

Where [3] appears, read: arsenate co-treatment: 1 mM arsenate 1 h.
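Also: each temperature applied for 3 min, abundance score taken as mean log2 fold change at the two lowest temperatures, z-score obtained by mean subtraction and division by SD.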

UniProt Q8IU81, sequence (Q8IU81 whole entry): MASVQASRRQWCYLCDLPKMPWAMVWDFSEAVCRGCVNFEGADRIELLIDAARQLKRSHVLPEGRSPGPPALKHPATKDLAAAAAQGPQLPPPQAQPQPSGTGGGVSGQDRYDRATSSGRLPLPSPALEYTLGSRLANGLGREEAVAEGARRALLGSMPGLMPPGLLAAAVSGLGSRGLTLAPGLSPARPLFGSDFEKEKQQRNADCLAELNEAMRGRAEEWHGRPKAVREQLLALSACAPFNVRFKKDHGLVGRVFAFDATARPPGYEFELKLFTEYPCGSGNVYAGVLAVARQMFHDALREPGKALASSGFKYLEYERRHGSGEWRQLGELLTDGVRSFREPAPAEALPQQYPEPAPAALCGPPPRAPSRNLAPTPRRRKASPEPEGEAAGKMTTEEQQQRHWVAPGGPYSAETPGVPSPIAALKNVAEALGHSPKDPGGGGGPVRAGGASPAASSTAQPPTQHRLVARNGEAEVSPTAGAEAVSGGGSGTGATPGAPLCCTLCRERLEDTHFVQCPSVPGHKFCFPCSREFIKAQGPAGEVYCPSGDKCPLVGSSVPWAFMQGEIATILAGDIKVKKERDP
UniProt O00410, sequence (O00410 whole entry): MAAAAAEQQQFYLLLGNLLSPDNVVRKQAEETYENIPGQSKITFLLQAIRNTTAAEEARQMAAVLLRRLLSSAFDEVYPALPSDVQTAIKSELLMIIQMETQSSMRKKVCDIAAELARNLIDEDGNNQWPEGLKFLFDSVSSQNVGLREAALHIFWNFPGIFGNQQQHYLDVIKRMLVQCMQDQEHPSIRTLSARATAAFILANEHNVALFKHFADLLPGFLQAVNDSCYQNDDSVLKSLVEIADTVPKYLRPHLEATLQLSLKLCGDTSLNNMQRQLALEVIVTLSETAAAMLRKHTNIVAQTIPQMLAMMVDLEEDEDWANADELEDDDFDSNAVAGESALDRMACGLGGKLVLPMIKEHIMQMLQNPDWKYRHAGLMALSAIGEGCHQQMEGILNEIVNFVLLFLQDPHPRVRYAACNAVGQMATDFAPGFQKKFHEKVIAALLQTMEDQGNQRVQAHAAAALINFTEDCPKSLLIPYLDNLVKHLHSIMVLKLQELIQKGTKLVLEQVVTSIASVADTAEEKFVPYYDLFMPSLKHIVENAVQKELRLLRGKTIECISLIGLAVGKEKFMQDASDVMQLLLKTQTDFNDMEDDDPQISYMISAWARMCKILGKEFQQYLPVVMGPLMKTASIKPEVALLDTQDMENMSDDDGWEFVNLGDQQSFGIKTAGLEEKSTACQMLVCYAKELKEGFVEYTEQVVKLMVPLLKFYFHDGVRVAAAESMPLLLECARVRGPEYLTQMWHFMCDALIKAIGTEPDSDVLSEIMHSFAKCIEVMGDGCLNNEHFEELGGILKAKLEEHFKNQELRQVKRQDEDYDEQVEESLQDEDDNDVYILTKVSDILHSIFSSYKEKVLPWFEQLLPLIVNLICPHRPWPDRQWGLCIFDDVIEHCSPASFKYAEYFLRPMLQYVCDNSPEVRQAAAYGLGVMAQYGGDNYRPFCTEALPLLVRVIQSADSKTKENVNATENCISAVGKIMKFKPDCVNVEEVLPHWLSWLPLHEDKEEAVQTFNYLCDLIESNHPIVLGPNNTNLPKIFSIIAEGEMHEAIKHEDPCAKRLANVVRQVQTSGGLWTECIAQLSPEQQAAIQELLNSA
UniProt P46940, sequence (P46940 whole entry): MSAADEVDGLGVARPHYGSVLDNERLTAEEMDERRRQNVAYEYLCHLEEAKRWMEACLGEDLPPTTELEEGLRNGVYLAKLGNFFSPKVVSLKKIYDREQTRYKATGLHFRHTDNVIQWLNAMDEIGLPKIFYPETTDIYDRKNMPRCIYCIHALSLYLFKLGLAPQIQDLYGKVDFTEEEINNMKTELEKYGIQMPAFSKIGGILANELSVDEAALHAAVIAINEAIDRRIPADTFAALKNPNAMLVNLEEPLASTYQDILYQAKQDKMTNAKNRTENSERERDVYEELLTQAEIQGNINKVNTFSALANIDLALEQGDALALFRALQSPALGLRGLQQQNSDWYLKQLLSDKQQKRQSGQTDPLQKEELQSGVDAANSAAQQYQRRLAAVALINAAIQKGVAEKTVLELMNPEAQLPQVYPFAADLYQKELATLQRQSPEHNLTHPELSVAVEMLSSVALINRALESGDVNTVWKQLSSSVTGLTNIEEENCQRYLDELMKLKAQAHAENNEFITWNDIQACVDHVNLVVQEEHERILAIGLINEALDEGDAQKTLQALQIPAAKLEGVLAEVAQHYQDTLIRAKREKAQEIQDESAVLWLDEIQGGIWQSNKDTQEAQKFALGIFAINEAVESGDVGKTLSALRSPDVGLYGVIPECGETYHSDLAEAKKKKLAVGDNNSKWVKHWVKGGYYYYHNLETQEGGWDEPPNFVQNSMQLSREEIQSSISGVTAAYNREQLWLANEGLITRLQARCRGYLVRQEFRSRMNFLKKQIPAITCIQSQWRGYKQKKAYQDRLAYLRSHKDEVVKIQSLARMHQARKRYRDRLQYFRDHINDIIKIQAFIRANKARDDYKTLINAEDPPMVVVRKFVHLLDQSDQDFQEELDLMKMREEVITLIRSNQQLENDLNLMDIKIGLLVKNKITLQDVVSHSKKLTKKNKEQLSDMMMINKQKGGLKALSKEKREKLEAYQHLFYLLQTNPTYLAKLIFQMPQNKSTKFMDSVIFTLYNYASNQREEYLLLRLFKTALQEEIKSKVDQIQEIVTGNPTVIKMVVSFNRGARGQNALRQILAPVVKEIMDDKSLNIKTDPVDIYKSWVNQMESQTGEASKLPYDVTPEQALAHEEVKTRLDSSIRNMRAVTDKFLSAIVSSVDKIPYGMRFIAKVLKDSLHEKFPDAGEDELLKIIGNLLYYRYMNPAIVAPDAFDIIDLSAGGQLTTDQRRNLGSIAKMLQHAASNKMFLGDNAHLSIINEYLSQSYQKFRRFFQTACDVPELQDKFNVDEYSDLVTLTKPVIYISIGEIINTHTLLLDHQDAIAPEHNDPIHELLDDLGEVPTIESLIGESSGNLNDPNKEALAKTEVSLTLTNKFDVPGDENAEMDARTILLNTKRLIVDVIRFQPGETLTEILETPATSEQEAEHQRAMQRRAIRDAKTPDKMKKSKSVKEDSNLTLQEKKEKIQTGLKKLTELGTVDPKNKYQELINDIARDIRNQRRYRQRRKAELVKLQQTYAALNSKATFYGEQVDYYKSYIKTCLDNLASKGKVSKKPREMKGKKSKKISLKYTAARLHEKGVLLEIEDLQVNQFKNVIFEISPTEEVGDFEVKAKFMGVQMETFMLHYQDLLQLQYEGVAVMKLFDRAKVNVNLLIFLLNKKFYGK
UniProt Q86VI3, sequence (Q86VI3 whole entry): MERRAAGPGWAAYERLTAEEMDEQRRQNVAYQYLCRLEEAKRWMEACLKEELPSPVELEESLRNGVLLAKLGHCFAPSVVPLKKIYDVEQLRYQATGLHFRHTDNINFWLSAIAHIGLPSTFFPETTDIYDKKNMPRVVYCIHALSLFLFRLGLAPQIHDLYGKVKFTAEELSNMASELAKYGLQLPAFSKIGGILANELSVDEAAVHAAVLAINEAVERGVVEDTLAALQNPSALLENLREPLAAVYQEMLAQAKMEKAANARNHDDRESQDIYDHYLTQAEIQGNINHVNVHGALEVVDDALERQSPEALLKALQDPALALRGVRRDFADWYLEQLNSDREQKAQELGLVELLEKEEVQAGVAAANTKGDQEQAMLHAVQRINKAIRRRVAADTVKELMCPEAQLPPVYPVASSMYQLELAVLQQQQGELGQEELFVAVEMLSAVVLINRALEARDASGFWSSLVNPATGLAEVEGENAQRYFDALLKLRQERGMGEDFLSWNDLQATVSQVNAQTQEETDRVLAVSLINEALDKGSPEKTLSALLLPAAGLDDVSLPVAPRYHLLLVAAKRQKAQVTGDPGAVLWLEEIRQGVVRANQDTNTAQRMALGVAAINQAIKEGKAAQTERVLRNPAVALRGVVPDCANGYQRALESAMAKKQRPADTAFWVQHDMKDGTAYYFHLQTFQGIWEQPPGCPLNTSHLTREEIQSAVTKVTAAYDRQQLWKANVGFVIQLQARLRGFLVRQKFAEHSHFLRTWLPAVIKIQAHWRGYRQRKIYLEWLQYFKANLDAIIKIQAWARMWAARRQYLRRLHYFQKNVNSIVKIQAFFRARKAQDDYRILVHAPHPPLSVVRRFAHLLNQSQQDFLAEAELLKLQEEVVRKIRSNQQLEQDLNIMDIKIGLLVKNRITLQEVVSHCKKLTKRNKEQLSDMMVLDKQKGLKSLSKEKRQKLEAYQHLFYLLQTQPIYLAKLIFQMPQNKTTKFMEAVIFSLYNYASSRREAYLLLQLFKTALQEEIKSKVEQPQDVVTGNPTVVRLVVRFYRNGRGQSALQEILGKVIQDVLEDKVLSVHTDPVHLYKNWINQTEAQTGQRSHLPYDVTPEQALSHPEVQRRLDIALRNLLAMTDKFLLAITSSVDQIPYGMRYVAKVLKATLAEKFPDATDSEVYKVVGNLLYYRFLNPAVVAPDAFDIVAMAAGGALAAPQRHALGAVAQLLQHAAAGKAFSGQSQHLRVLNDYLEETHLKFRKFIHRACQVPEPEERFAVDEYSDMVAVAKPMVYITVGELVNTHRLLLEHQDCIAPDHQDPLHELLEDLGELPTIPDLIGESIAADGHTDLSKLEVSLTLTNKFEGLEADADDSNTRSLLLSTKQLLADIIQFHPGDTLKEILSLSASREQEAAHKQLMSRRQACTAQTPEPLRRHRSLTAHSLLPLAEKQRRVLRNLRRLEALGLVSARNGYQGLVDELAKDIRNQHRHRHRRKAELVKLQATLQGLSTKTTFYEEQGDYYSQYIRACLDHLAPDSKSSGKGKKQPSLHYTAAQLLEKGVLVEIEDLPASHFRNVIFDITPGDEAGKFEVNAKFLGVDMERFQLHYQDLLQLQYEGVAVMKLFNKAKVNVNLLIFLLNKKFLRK
UniProt Q9BUE6, sequence (Q9BUE6 whole entry): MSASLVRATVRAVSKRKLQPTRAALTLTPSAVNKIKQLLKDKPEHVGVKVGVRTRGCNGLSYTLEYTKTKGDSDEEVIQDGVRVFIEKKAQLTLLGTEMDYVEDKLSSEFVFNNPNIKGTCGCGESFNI

Turning to ING1 (UniProt Q9UK53), the thermal stability z-score in test [1] is -1.34; in test [2] (setting [3]), 1.11; in test [2] (arsenate co-treatment: none), 0.466.

Take INPP1 (UniProt P49441): the results for the thermal stability z-score in test [1], in test [2] (setting [3]) and in test [2] (arsenate co-treatment: none) were -1.9, -1.52 and -1.35, respectively.

Turning to INPP4A (UniProt Q96PE3), the thermal stability z-score in test [1] turned out to be 0.221; in test [2] (setting [3]), 0.395; in test [2] (arsenate co-treatment: none), 0.319.

Turning to INPP5A (UniProt Q14642), the thermal stability z-score in test [1] was 0.656; in test [2] (setting [3]), -1.28; in test [2] (arsenate co-treatment: none), -0.144.

Consider INPP5B (UniProt P32019), for which the figures for the thermal stability z-score in test [1], in test [2] (setting [3]) and in test [2] (arsenate co-treatment: none) were -0.211, -0.146 and -0.514, respectively.

In the case of INPP5F (UniProt Q9Y2H2), the thermal stability z-score in test [1] is 0.13; in test [2] (setting [3]), -0.128; in test [2] (arsenate co-treatment: none), -0.261.

In the case of INPP5J (UniProt Q15735), the thermal stability z-score was -0.471 in test [1], -0.307 in test [2] (setting [3]) and -0.456 in test [2] (arsenate co-treatment: none).

For the target INPP5K (UniProt Q9BT40), the thermal stability z-score is 0.268 in test [1], -0.0181 in test [2] (setting [3]) and 0.225 in test [2] (arsenate co-treatment: none).

Regarding INPPL1 (UniProt O15357), the figures for the thermal stability z-score in test [1], in test [2] (setting [3]) and in test [2] (arsenate co-treatment: none) were 0.0386, -0.527 and -0.154, respectively.

In the case of INSR (UniProt P06213), the thermal stability z-score in test [1] worked out at 0.639; in test [2] (setting [3]), 0.408; in test [2] (arsenate co-treatment: none), 0.683.

Take INTS3 (UniProt Q68E01): the thermal stability z-score in test [1] is 0.26; in test [2] (setting [3]), -0.121; in test [2] (arsenate co-treatment: none), -0.0169.

With INTS4 (UniProt Q96HW7), the thermal stability z-score in test [1] is -0.0059; in test [2] (setting [3]), 1.08; in test [2] (arsenate co-treatment: none) it was 1.34.

As to INTS7 (UniProt Q9NVH2), the figures for the thermal stability z-score in test [1], in test [2] (setting [3]) and in test [2] (arsenate co-treatment: none) were -0.0595, 0.874 and -0.103, respectively.

With IP6K1 (UniProt Q92551), the thermal stability z-score in test [1] was -0.179; in test [2] (setting [3]), 0.327; in test [2] (arsenate co-treatment: none) it was -0.471.

As for IPO4 (UniProt Q8TEX9), the results for the thermal stability z-score in test [1], in test [2] (setting [3]) and in test [2] (arsenate co-treatment: none) were 0.0408, -0.55 and -0.394, respectively.

For IPO5 (UniProt O00410), the thermal stability z-score in test [1] was -0.498; in test [2] (setting [3]), 0.21; in test [2] (arsenate co-treatment: none), -0.103.

With IPO7 (UniProt O95373), the thermal stability z-score in test [1] was -0.418; in test [2] (setting [3]), 2.63; in test [2] (arsenate co-treatment: none), 0.4.

Take IPO8 (UniProt O15397): the figures for the thermal stability z-score in test [1], in test [2] (setting [3]) and in test [2] (arsenate co-treatment: none) were 0.756, -0.327 and -0.557, respectively.

For IPO9 (UniProt Q96P70), the values for the thermal stability z-score in test [1], in test [2] (setting [3]) and in test [2] (arsenate co-treatment: none) were 0.165, 0.178 and -0.179, respectively.

In the case of IPO11 (UniProt Q9UI26), the thermal stability z-score was -0.0713 in test [1], -0.322 in test [2] (setting [3]) and -0.104 in test [2] (arsenate co-treatment: none).

As for IPO13 (UniProt O94829), the thermal stability z-score in test [1] was -0.159; in test [2] (setting [3]), -0.112; in test [2] (arsenate co-treatment: none), -0.218.

As for IPPK (UniProt Q9H8X2), the thermal stability z-score in test [1] was 0.0883; in test [2] (setting [3]), 0.199; in test [2] (arsenate co-treatment: none) it was 0.487.

On to IQGAP1 (UniProt P46940), for which the values for the thermal stability z-score in test [1], in test [2] (setting [3]) and in test [2] (arsenate co-treatment: none) were -1.08, 0.776 and 0.818, respectively.

IQGAP2 (UniProt Q13576): the figures for the thermal stability z-score in test [1], in test [2] (setting [3]) and in test [2] (arsenate co-treatment: none) were -0.209, -0.121 and -0.159, respectively.

IQGAP3 (UniProt Q86VI3): the thermal stability z-score in test [1] was -0.171; in test [2] (setting [3]) it was -0.157; in test [2] (arsenate co-treatment: none), -0.0447.

IQSEC1 (UniProt Q6DN90): the thermal stability z-score was 0.159 in test [1], 0.165 in test [2] (setting [3]) and 0.212 in test [2] (arsenate co-treatment: none).

For the target IRAK1 (UniProt P51617), the thermal stability z-score in test [1] was -0.328; in test [2] (setting [3]) it was -0.153; in test [2] (arsenate co-treatment: none), -0.074.

Take IRAK4 (UniProt Q9NWZ3): the results for the thermal stability z-score in test [1], in test [2] (setting [3]) and in test [2] (arsenate co-treatment: none) were -0.11, -0.11 and -0.0699, respectively.

For IREB2 (UniProt P48200), the thermal stability z-score is -0.386 in test [1], -0.0142 in test [2] (setting [3]) and 0.0771 in test [2] (arsenate co-treatment: none).

With IRF2BP1 (UniProt Q8IU81), the values for the thermal stability z-score in test [1], in test [2] (setting [3]) and in test [2] (arsenate co-treatment: none) were -0.228, -0.196 and -0.13, respectively.

On to IRF2BP2 (UniProt Q7Z5L9), for which the thermal stability z-score in test [1] is -2.51; in test [2] (setting [3]), 0.371; in test [2] (arsenate co-treatment: none), -0.0192.

As to IRF2BPL (UniProt Q9H1B7), the thermal stability z-score is -0.124 in test [1], 0.0789 in test [2] (setting [3]) and 0.157 in test [2] (arsenate co-treatment: none).

Regarding IRF3 (UniProt Q14653), the results for the thermal stability z-score in test [1], in test [2] (setting [3]) and in test [2] (arsenate co-treatment: none) were 1.13, 0.883 and -0.106, respectively.

In the case of IRGQ (UniProt Q8WZA9), the results for the thermal stability z-score in test [1], in test [2] (setting [3]) and in test [2] (arsenate co-treatment: none) were -0.24, -0.249 and -0.257, respectively.

As to IRS2 (UniProt Q9Y4H2), the thermal stability z-score in test [1] is -1.42; in test [2] (setting [3]), -0.525; in test [2] (arsenate co-treatment: none) it was -0.112.

ISCA1 (UniProt Q9BUE6): the thermal stability z-score in test [1] was 0.178; in test [2] (setting [3]), -0.00815; in test [2] (arsenate co-treatment: none), 0.577.

In the case of ISCU (UniProt Q9H1K1), the thermal stability z-score in test [1] was -1.15; in test [2] (setting [3]) it was 0.628; in test [2] (arsenate co-treatment: none) it was 0.0375.

On to ISG15 (UniProt P05161), for which the values for the thermal stability z-score in test [1], in test [2] (setting [3]) and in test [2] (arsenate co-treatment: none) were 0.355, 0.471 and 0.327, respectively.

As to ISG20 (UniProt Q96AZ6), the thermal stability z-score in test [1] was determined as 0.863; in test [2] (setting [3]), 0.189; in test [2] (arsenate co-treatment: none), 0.668.

Regarding ISG20L2 (UniProt Q9H9L3), the thermal stability z-score in test [1] is -0.367; in test [2] (setting [3]) it was -0.0445; in test [2] (arsenate co-treatment: none) it was -0.0231.

Turning to ISOC1 (UniProt Q96CN7), the values for the thermal stability z-score in test [1], in test [2] (setting [3]) and in test [2] (arsenate co-treatment: none) were 8.79, 1.2 and 1.14, respectively.

As to IST1 (UniProt P53990), the thermal stability z-score in test [1] came out at 0.351; in test [2] (setting [3]) it was 0.453; in test [2] (arsenate co-treatment: none), 0.367.
